Measured values published in patent publication US11524940B1, “Inhibitors of cysteine proteases and methods of use thereof” (priority 2020, dated 2022).
Like-named read-outs stand apart in the source and are kept apart here.

Target: 229E Mpro (Human coronavirus 229E (HCoV-229E), UniProt P0C6X1)
Test: 229E Mpro activity
Assay type: biochemical
Procedure: Compounds are assayed using standard methods to assess compound activity and IC50. […] The assay buffer contains 20 mM of Tris-HCl (pH 7.3), 100 mM of NaCl, 1 mM of EDTA, 5mM of TCEP and 0.1% BSA.

229E Mpro, sequence (P0C6X1 2966-3267 limits assumed): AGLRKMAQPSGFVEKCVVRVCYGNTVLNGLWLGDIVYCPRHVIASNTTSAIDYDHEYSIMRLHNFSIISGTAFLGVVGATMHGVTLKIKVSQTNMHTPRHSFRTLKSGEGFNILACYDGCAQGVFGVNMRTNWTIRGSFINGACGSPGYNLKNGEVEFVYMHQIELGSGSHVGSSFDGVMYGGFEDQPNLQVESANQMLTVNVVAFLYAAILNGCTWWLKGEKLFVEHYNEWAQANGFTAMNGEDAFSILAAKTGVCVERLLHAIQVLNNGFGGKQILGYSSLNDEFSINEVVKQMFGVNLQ

| SMILES | EC50 (read-out: 229E Mpro EC50) [nM] | EC50 (229E Mpro EC50) [nM] |
| --- | --- | --- |
| N#C[C@H](C[C@@H]1CCNC1=O)NC(=O)[C@H](CC1CC1)NC(=O)c1cc2c(OCCN3CCOCC3)cccc2[nH]1 [Compound 515, N-[(1S)-2-[[(1S)-1-cyano-2-[(3S)-2-oxopyrrolidin-3-yl]ethyl]amino]-1-(cyclopropylmethyl)-2-oxo-ethyl]-4-(2-morpholinoethoxy)-1H-indole-2-carboxamide] | < 2000 | – |
| COc1cc(Cl)cc2[nH]c(C(=O)N[C@@H](CC(C)(C)C)C(=O)N[C@H](C#N)C[C@@H]3CCCNC3=O)cc12 [Compound 1149] | < 2000 | – |
| COc1cccc2[nH]c(C(=O)N[C@@H](CC(C)C)C(=O)N[C@@H](C[C@@H]3CCNC3=O)C(C#N)NCC(=O)O)cc12 (single isomer, unassigned) [653 (Isomer 1)] | < 2000 | – |
| N#C[C@H](C[C@@H]1CCNC1=O)NC(=O)C1CC2(CCCCC2)CN1C(=O)c1cc2ccc(Cl)cc2[nH]1 (single isomer, unassigned) [878 (Isomer 1)] | < 2000 | – |
| N#C[C@H](C[C@@H]1CCCNC1=O)NC(=O)[C@H](CC1CC1)NC(=O)c1cc2c(Cl)cc(Cl)cc2[nH]1 [Compound 840, 4,6-dichloro-N-[(1S)-2-[[(1S)-1-cyano-2-[(3S)-2-oxo-3-piperidyl]ethyl]amino]-1-(cyclopropylmethyl)-2-oxo-ethyl]-1H-indole-2-carboxamide] | < 2000 | – |
| N#C[C@H](C[C@@H]1CCCNC1=O)NC(=O)[C@H](CC1CC1)NC(=O)c1cc2cc(Cl)ccc2[nH]1 [Compound 633, 5-chloro-N-[(1S)-2-[[(1S)-1-cyano-2-[(3S)-2-oxo-3-piperidyl]ethyl]amino]-1-(cyclopropylmethyl)-2-oxo-ethyl]-1H-indole-2-carboxamide] | < 2000 | – |
| N#C[C@H](C[C@@H]1CCCNC1=O)NC(=O)[C@H](CC1CC1)NC(=O)c1cc2ccc(F)c(Br)c2[nH]1 [Compound 850] | 10000 to 30000 | – |
| COc1cccc2[nH]c(C(=O)N3CC4(CCCCC4)CC3C(=O)N[C@H](C#N)C[C@@H]3CCNC3=O)cc12 (single isomer, unassigned) [389A (Isomer 1)] | < 2000 | – |
| CC(C)C[C@H](NC(=O)c1nc2ncccc2[nH]1)C(=O)N[C@H](C#N)C[C@@H]1CCNC1=O [Compound 131, N-[(1S)-1-[[(1S)-1-cyano-2-[(3S)-2-oxopyrrolidin-3-yl]ethyl]carbamoyl]-3-methyl-butyl]-1H-imidazo[4,5-b]pyridine-2-carboxamide] | < 2000 | – |
| COc1cccc2[nH]c(C(=O)N3CC4(CCCC4)C[C@H]3C(=O)N[C@H](C#N)C[C@@H]3CCNC3=O)cc12 (single isomer, unassigned) [401 (Isomer 2)] | 2000 to 10000 | – |
| COc1cccc2[nH]c(C(=O)N[C@H](CC3CC3)C(=O)N[C@@H](C#N)C[C@@H]3CCCNC3=O)cc12 (single isomer, unassigned) [491 (Isomer 4)] | < 2000 | – |
| COc1cccc2[nH]c(C(=O)N[C@@H](CC(C)C)C(=O)NC(C#N)CC3CC(=O)Nc4ccccc43)cc12 (mixture of isomers) [Compound 249, N-[(1S)-1-[[1-cyano-2-(2-oxo-3,4-dihydro-1H-quinolin-4-yl)ethyl]carbamoyl]-3-methyl-butyl]-4-methoxy-1H-indole-2-carboxamide] | > 30000 | – |
| CN1CCCC[C@]12CCN([C@@H](CC1CC1)C(=O)N[C@H](C#N)C[C@@H]1CCNC1=O)C2=O [Compound 273C, (2S)-N-[(1S)-1-cyano-2-[(3S)-2-oxopyrrolidin-3-yl]ethyl]-3-cyclopropyl-2-[(5R)-6-methyl-1-oxo-2,6-diazaspiro[4.5]decan-2-yl]propanamide] | 2000 to 10000 | – |
| COc1cccc2[nH]c(C(=O)N[C@@H](CC(C)C)C(=O)N[C@H](/C=C/S(C)(=O)=O)C[C@@H]3CCNC3=O)cc12 [Compound 136, 4-methoxy-N-[(1S)-3-methyl-1-[[(E,1S)-3-methylsulfonyl-1-[[(3S)-2-oxopyrrolidin-3-yl]methyl]allyl]carbamoyl]butyl]-1H-indole-2-carboxamide] | < 2000 | – |
| CCCN1C(=N)C([C@H](C[C@@H]2CCNC2=O)NC(=O)[C@H](CC(C)C)NC(=O)c2cc3c(OC)cccc3[nH]2)OC1=O (stereo partly drawn) [Compound 355, N-((2S)-1-(((1 S)-1-(4-imino-2-oxo-3-propyloxazolidin-5-yl)-2-((S)-2-oxopyrrolidin-3-yl)ethyl)amino)-4-methyl-1-oxopentan-2-yl)-4-methoxy-1H-indole-2-carboxamide] | 2000 to 10000 | – |
| COc1ccc2[nH]c(C(=O)N[C@@H](CC3CC3)C(=O)N[C@H](C#N)C[C@@H]3CCCNC3=O)cc2n1 [Compound 621, N-[(1S)-2-[[(1S)-1-cyano-2-[(3S)-2-oxo-3-piperidyl]ethyl]amino]-1-(cyclopropylmethyl)-2-oxo-ethyl]-5-methoxy-1H-pyrrolo[3,2-b]pyridine-2-carboxamide] | < 2000 | – |
| COc1cccc2[nH]c(C(=O)N3CC(C)(C)C[C@H]3C(=O)N[C@H](C#N)C[C@@H]3CCNC3=O)cc12 (single isomer, unassigned) [395 (Isomer 1)] | < 2000 | – |
| N#Cc1ccc2[nH]c(C(=O)N[C@@H](CC3CC3)C(=O)N[C@H](C#N)C[C@@H]3CCCNC3=O)cc2c1 [Compound 860] | < 2000 | – |
| COc1cccc2[nH]c(C(=O)N3C[C@H](OC)C[C@H]3C(=O)N[C@H](C#N)C[C@@H]3CCNC3=O)cc12 [Compound 407] | < 2000 | – |

| SMILES | EC50 (read-out: 229E Mpro EC50) [nM] | EC50 (229E Mpro EC50) [nM] |
| --- | --- | --- |
| CCNC(C#N)[C@H](C[C@@H]1CCNC1=O)NC(=O)[C@H](CC(C)C)NC(=O)c1cc2c(OC)cccc2[nH]1 (single isomer, unassigned) [511 (Isomer 1)] | < 2000 | – |
| COc1cc(Cl)c2[nH]c(C(=O)N[C@@H](CC3CC3)C(=O)N[C@H](C#N)C[C@@H]3CCCNC3=O)cc2c1 [Compound 900, 7-chloro-N-((S)-1-(((S)-1-cyano-2-((S)-2-oxopiperidin-3-yl)ethyl)amino)-3-cyclopropyl-1-oxopropan-2-yl)-5-methoxy-1H-indole-2-carboxamide] | < 2000 | – |
| N#C[C@H](C[C@@H]1CCCNC1=O)NC(=O)[C@H](CC1CC1)NC(=O)c1ncc(Cl)[nH]1 [Compound 868] | < 2000 | – |
| COc1cccc2[nH]c(C(=O)N[C@@H](CC(C)C)C(=O)N[C@@H](C[C@@H]3CCNC3=O)C(C#N)NC(C)(C)C)cc12 (single isomer, unassigned) [323 (Isomer 2)] | < 2000 | – |
| CC1(C)CCC(C[C@@H](C#N)NC(=O)[C@H](CC2CC2)NC(=O)c2cc3cccc(Cl)c3[nH]2)C(=O)N1 (single isomer, unassigned) [Compound 749 (Isomer 1)] | – | 2000 to 10000 |
| COc1ccc(Cl)c2[nH]c(C(=O)N[C@@H](CC3CC3)C(=O)N[C@H](C#N)C[C@@H]3CCCNC3=O)cc12 [Compound 898, 7-chloro-N-[(1S)-2-[[(1S)-1-cyano-2-[(3S)-2-oxo-3-piperidyl]ethyl]amino]-1-(cyclopropylmethyl)-2-oxo-ethyl]-4-methoxy-1H-indole-2-carboxamide] | < 2000 | – |
| N#C[C@H](C[C@@H]1CCCNC1=O)NC(=O)[C@H](CC1CC1)NC(=O)c1cc2c(F)ccc(Cl)c2[nH]1 [Compound 832, 7-chloro-N-[(1S)-2-[[(1S)-1-cyano-2-[(3S)-2-oxo-3-piperidyl]ethyl]amino]-1-(cyclopropylmethyl)-2-oxo-ethyl]-4-fluoro-1H-indole-2-carboxamide] | < 2000 | – |
| COc1cccc2[nH]c(C(=O)N[C@@H](CC3CC3)C(=O)N[C@@]3(C#N)C[C@H]4CC[C@@H]3[C@H]3C(=O)NC(=O)[C@@H]43)cc12 (single isomer, unassigned) [489 (Isomer 1)] | > 30000 | – |
| COc1cccc2[nH]c(C(=O)N[C@@H](CC(C)C)C(=O)NC(C#N)Cc3n[nH]c4ccccc34)cc12 (mixture of isomers) [Compound 245, N-[(1S)-1-[[1-cyano-2-(1H-indazol-3-yl)ethyl]carbamoyl]-3-methyl-butyl]-4-methoxy-1H-indole-2-carboxamide] | > 30000 | – |
| CN(C(=O)c1cc2cccc(Cl)c2[nH]1)[C@@H](CC1CC1)C(=O)N[C@H](C#N)C[C@@H]1CCCNC1=O [Compound 1137] | 2000 to 10000 | – |
| CC(C)C[C@H](NC(=O)CC(C)(O)c1ccc(Cl)cc1)C(=O)N[C@H](C#N)C[C@@H]1CCNC1=O (single isomer, unassigned) [365 (Isomer 1)] | 2000 to 10000 | – |
| N#C[C@H](C[C@@H]1CCCNC1=O)NC(=O)[C@H](CC1CC1)NC(=O)c1cc2cc(F)cc(Cl)c2[nH]1 [Compound 830, 7-chloro-N-((S)-1-(((S)-1-cyano-2-((S)-2-oxopiperidin-3-yl)ethyl)amino)-3-cyclopropyl-1-oxopropan-2-yl)-5-fluoro-1H-indole-2-carboxamide] | < 2000 | – |
| CC(C)C[C@H](NC(=O)CC(C)(O)c1ccc(Cl)cc1)C(=O)N[C@H](C#N)C[C@@H]1CCNC1=O (single isomer, unassigned) [365 (Isomer 2)] | 2000 to 10000 | – |
| N#C[C@H](C[C@@H]1CCCNC1=O)NC(=O)[C@H](CC1CC1)NC(=O)c1cc2cc(F)cc(Br)c2[nH]1 [Compound 852, 7-bromo-N-((S)-1-(((S)-1-cyano-2-((S)-2-oxopiperidin-3-yl)ethyl)amino)-3-cyclopropyl-1-oxopropan-2-yl)-5-fluoro-1H-indole-2-carboxamide] | < 2000 | – |
| COc1ccc(Br)c2[nH]c(C(=O)N[C@@H](CC3CC3)C(=O)N[C@H](C#N)C[C@@H]3CCCNC3=O)cc12 [Compound 846] | < 2000 | – |
| COc1cccc2[nH]c(C(=O)N3C[C@H](OC(C)(C)C)C[C@H]3C(=O)N[C@H](C#N)C[C@@H]3CCNC3=O)cc12 [Compound 165, (2S,4R)-4-(tert-butoxy)-N-((S)-1-cyano-2-((S)-2-oxopyrrolidin-3-yl)ethyl)-1-(4-methoxy-1H-indole-2-carbonyl)pyrrolidine-2-carboxamide] | > 30000 | – |
| N#C[C@H](C[C@@H]1CCNC1=O)NC(=O)C1CC2(CCCCC2)CN1C(=O)c1cc2ccc(Cl)cc2[nH]1 (single isomer, unassigned) [878 (Isomer 2)] | 10000 to 30000 | – |
| COc1ccc(F)c2[nH]c(C(=O)N[C@@H](CC3CC3)C(=O)N[C@H](C#N)C[C@@H]3CCCNC3=O)cc12 [Compound 820, N-((S)-1-(((S)-1-cyano-2-((S)-2-oxopiperidin-3-yl)ethyl)amino)-3-cyclopropyl-1-oxopropan-2-yl)-7-fluoro-4-methoxy-1H-indole-2-carboxamide] | < 2000 | – |
